Article PMC6270453, “One Lignanoid Compound and Four Triterpenoid Compounds with Anti-Inflammatory Activity from the Leaves of Elaeagnus oldhamii Maxim” (Molecules, 2013)
Converted amounts (≈) assume the structure as drawn. “Also recorded” adds a separate entry of the source.

Assays:
[1] = tested on: LPS-induced NO production in macrophages (RAW264.7 cells); test: Measurement of nitric oxide/nitrite (Griess reaction) in LPS-stimulated macrophages; assay type: cell-based, murine; details: for NO Inhibition (% of Control) / No Level: LPS 100 ng/mL, 24 h, mean ± S.D.; for No Level: nitrite in medium, LPS alone 30.3 ± 2.2, in µM
Experimental: (§1) A murine macrophage cell line RAW264.7 (BCRC No. 60001) was purchased from the Bioresources Collection and Research Center (BCRC, Hsinchu, Taiwan) of the Food Industry Research and Development Institute (Hsinchu, Taiwan). Cells were cultured in plastic dishes containing Dulbecco’s Modified Eagle Medium (DMEM, Sigma) supplemented with 10% fetal bovine serum (FBS, Sigma) in a CO2 incubator (5% CO2 in air) at 37 °C and subcultured every 3 days at a dilution of 1:5 using 0.05% trypsin-0.02% EDTA in Ca^2+-, Mg^2+-free phosphate-buffered saline (DPBS).
NO production was indirectly assessed by measuring the nitrite levels in the cultured media and serum determined by a colorimetric method based on the Griess reaction. The cells were incubated with different concentration of samples in the presence of LPS (100 ng/mL) at 37 °C for 24 h. Then, cells were dispensed into 96-well plates, and 100 μL of each supernatant was mixed with the same volume of Griess reagent (1% sulfanilamide, 0.1% naphthylethylenediamine dihydrochloride and 5% phosphoric acid) and incubated at room temperature for 10 min, the absorbance was measured at 540 nm with a Micro-Reader (Molecular Devices). By using sodium nitrite to generate a standard curve, the concentration of nitrite was measured form absorbance at 540 nm.
IC50 values were estimated using a non-linear regression algorithm (Sigma Plot 12.0; SPSS Inc. Chicago, IL, USA). Statistical evaluation was carried out by one-way ANOVA followed by Scheffe’s multiple range tests.

[2] = tested on: RAW264.7 cells; test: Cell viability (MTT) in the presence of LPS; assay type: cell-based, murine; details: for Cell Viability (% of Control): RAW264.7, 100 ng/mL LPS, 24 h, MTT, mean ± S.D.
Experimental: as §1
Cells (2 × 10^5) were cultured in 96-well plate containing DMEM supplemented with 10% FBS for 1 day to become nearly confluent. Then cells were cultured with compounds 1–5 in the presence of 100 ng/mL LPS (lipopolysaccharide) for 24 h. After that, the cells were washed twice with DPBS and incubated with 100 μL of 0.5 mg/mL MTT for 2 h at 37 °C testing for cell viability. The medium was then discarded and 100 μL dimethyl sulfoxide (DMSO) was added. After 30-min incubation, absorbance at 570 nm was read using a microplate reader (Molecular Devices, Sunnyvale, CA, USA).

IC50 ([1]; Mus musculus, RAW264.7, 24 h, LPS-stimulated RAW264.7 cells, non-linear regression, read-out: IC50 for inhibition of nitrite production): ~10.3 µg/mL (≈ 31.4 µM)
SMILES: COc1cc([C@H]2Oc3cc(/C=C\CO)ccc3O[C@@H]2C)ccc1O [Compound 1, isoamericanol B]
NO Inhibition (% of Control) ([1]; dose 2.5 μg/mL): 42.0 ± 1.6 % of Control | No Level ([1]; dose 2.5 μg/mL): 17.6 ± 0.5 | NO Inhibition (% of Control) ([1]; dose 5 μg/mL): 42.3 ± 2.6 % of Control | No Level ([1]; dose 5 μg/mL): 17.5 ± 08 | NO Inhibition (% of Control) ([1]; dose 10 μg/mL): 49.7 ± 1.4 % of Control | No Level ([1]; dose 10 μg/mL): 15.2 ± 0.4 | NO Inhibition (% of Control) ([1]; dose 20 μg/mL): 60.4 ± 1.3 % of Control | No Level ([1]; dose 20 μg/mL): 12.0 ± 0.4 | Cell Viability (% of Control) ([2]; dose 2.5 μg/mL): 100.6 ± 5.9 % of Control | Cell Viability (% of Control) ([2]; dose 5 μg/mL): 97.6 ± 4.3 % of Control | Cell Viability (% of Control) ([2]; dose 10 μg/mL): 90.7 ± 3.3 % of Control | Cell Viability (% of Control) ([2]; dose 20 μg/mL): 88.8 ± 2.6 % of Control | Change of cell viability (in words) ([2]; tested concentrations 2.5 to 20 μg/mL): did not significantly change cell viability; also recorded: did not change significantly cell viability
